Experimental data: the Kinase Knowledgebase extract (Sharma et al. 2016)

Biological target: PIK3CG (human) (UniProt P48736)
Test: Inhibition of PIK3CG Kinase Activity

Chain of PIK3CG (human) (P48736 whole entry, looked up): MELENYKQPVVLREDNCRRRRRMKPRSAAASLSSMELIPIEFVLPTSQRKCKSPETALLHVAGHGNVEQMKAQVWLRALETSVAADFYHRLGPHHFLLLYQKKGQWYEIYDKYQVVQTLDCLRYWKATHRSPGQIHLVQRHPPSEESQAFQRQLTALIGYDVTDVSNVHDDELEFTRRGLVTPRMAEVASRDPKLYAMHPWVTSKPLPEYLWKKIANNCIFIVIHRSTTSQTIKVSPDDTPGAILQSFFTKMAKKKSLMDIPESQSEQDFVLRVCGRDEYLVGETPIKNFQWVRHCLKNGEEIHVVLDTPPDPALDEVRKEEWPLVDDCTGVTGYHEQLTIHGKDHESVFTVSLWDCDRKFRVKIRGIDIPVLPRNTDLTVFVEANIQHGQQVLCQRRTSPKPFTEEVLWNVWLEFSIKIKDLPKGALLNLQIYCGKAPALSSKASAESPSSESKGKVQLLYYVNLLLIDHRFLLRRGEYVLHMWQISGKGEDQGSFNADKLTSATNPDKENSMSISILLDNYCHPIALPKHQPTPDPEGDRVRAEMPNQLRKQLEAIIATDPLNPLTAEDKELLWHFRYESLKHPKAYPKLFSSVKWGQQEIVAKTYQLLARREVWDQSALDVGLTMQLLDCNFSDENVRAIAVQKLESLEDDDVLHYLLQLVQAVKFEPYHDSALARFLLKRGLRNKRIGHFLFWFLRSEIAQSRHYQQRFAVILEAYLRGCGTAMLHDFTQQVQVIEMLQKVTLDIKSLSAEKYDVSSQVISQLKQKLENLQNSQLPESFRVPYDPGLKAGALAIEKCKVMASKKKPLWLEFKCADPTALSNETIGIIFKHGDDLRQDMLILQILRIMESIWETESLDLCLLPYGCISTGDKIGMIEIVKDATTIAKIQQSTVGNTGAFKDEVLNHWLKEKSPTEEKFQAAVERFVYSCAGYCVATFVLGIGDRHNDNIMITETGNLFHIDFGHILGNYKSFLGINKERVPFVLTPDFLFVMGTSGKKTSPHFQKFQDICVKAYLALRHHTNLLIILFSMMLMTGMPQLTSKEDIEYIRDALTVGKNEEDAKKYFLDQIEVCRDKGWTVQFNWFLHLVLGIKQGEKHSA

IC50, < 800 nM:
Cc1nn(C)cc1CNC(=O)Nc1nc2c(s1)-c1c(cnn1-c1ccccc1Cl)C2
Cc1nc[nH]c1-c1cccc(CNC(=O)Nc2nc3c(s2)-c2c(cnn2-c2ccccc2Cl)C3)c1
Nc1cc(CCNC(=O)Nc2nc3c(s2)-c2c(cnn2-c2ccccc2C(F)(F)F)C3)nn1CC(F)(F)F
CCn1cnc(CCNC(=O)Nc2nc3c(s2)-c2c(cnn2-c2ccccc2Br)C3)c1
CN(Cc1cnn(C)c1)C(=O)Nc1nc2c(s1)-c1c(cnn1-c1ccccc1C(F)(F)F)C2
CC(C)Cn1nc(CCNC(=O)Nc2nc3c(s2)-c2c(cnn2-c2ccccc2C(F)(F)F)C3)cc1N
O=C(Nc1nc2c(s1)-c1c(cnn1-c1ccccc1Cl)C2)N1CCCC(c2ccccc2O)C1 (configuration not stated)
O=C(NCc1cocn1)Nc1nc2c(s1)-c1c(cnn1-c1ccccc1C(F)(F)F)C2
CC(C)Cn1cnc(CCNC(=O)Nc2nc3c(s2)-c2c(cnn2-c2ccccc2C(F)(F)F)C3)c1
CC(C)c1cnc(CCNC(=O)Nc2nc3c(s2)-c2c(cnn2-c2ccccc2C(F)(F)F)C3)o1
CCn1cc(CNC(=O)Nc2nc3c(s2)-c2c(cnn2-c2ccccc2C(F)(F)F)C3)cn1
CCn1nc(CNC(=O)Nc2nc3c(s2)-c2c(cnn2-c2ccccc2C(F)(F)F)C3)cc1N
O=C(O)[C@H]1[C@H](c2ccccc2)CCN1C(=O)Nc1nc2c(s1)-c1c(cnn1-c1ccccc1Cl)C2
CCCCNC(=O)Nc1nc2c(s1)-c1c(cnn1-c1ccccc1C(F)(F)F)C2
CCn1cnc(CCNC(=O)Nc2nc3c(s2)-c2c(cnn2-c2cccc(F)c2C(F)(F)F)C3)c1
Cc1c[nH]c(CCNC(=O)Nc2nc3c(s2)-c2c(cnn2-c2ccccc2Cl)C3)n1
O=C(NCc1ccsc1)Nc1nc2c(s1)-c1c(cnn1-c1ccccc1C(F)(F)F)C2
Cc1cc(C2CCCCC2)n(CCNC(=O)Nc2nc3c(s2)-c2c(cnn2-c2ccccc2C(F)(F)F)C3)n1
CC(C)(C)OC(=O)NCC1CCCN1C(=O)Nc1nc2c(s1)-c1c(cnn1-c1ccccc1Cl)C2 (configuration not stated)
CCCn1cnc(CCNC(=O)Nc2nc3c(s2)-c2c(cnn2-c2ccccc2C(F)(F)F)C3)c1
NC(=O)c1cccc(CNC(=O)Nc2nc3c(s2)-c2c(cnn2-c2ccccc2C(F)(F)F)C3)c1
Cc1ccc(CN2CC(NC(=O)Nc3nc4c(s3)-c3c(cnn3-c3ccccc3Cl)C4)CC2=O)cc1 (configuration not stated)
Cc1cc(-c2ccccc2)n(CCNC(=O)Nc2nc3c(s2)-c2c(cnn2-c2ccccc2C(F)(F)F)C3)n1
CCN1CCC[C@H]1CNC(=O)Nc1nc2c(s1)-c1c(cnn1-c1ccccc1Cl)C2
O=C(NCc1nnn[nH]1)Nc1nc2c(s1)-c1c(cnn1-c1ccccc1C(F)(F)F)C2
Cc1cc(-c2cccnc2)n(CCNC(=O)Nc2nc3c(s2)-c2c(cnn2-c2ccccc2C(F)(F)F)C3)n1
O=C(NCCc1cccnc1)Nc1nc2c(s1)-c1c(cnn1-c1ccccc1Cl)C2
CN(C)C(=O)CNC(=O)Nc1nc2c(s1)-c1c(cnn1-c1cc(Cl)ccc1Cl)C2
Cc1onc(-c2ccccc2)c1CNC(=O)Nc1nc2c(s1)-c1c(cnn1-c1ccccc1C(F)(F)F)C2
CN(C(=O)OC(C)(C)C)C1CCN(C(=O)Nc2nc3c(s2)-c2c(cnn2-c2ccccc2Cl)C3)C1 (configuration not stated)
O=C(Nc1nc2c(s1)-c1c(cnn1-c1ccccc1Cl)C2)Nc1ccccc1CN1CCNC1=O
O=C(NCc1ccn[nH]1)Nc1nc2c(s1)-c1c(cnn1-c1ccccc1C(F)(F)F)C2
CCCNC(=O)Nc1nc2c(s1)-c1c(cnn1-c1cc(Cl)ccc1Cl)C2
O=C(NCCn1nc(C(F)(F)F)cc1-c1ccco1)Nc1nc2c(s1)-c1c(cnn1-c1ccccc1C(F)(F)F)C2
CNC(=O)Nc1nc2c(s1)-c1c(cnn1-c1ccccc1C(F)(F)F)C2
CC1(C)NC(=O)N(Cc2ccc(CNC(=O)Nc3nc4c(s3)-c3c(cnn3-c3ccccc3Cl)C4)cc2)C1=O
CCn1cnc(CCNC(=O)Nc2nc3c(s2)-c2c(cnn2-c2ccccc2C(F)(F)F)C3)c1
O=C(NCCCN1CCNC1=O)Nc1nc2c(s1)-c1c(cnn1-c1ccccc1Cl)C2
Cn1nc(CNC(=O)Nc2nc3c(s2)-c2c(cnn2-c2ccccc2C(F)(F)F)C3)cc1N
O=C(Nc1nc2c(s1)-c1c(cnn1-c1ccccc1Cl)C2)N1CCC2(CC1)C(=O)NCN2c1ccccc1
CC(C)(NC(=O)Nc1nc2c(s1)-c1c(cnn1-c1ccccc1Cl)C2)C1Nc2ccccc2NC1=O (configuration not stated)
O=C(NCc1cccc(N2CCNC2=O)c1)Nc1nc2c(s1)-c1c(cnn1-c1ccccc1C(F)(F)F)C2
NC(=O)Nc1nc2c(s1)-c1c(cnn1-c1cc(Cl)ccc1Cl)C2
CCCNC(=O)Nc1nc2c(s1)-c1c(cnn1-c1cc(F)ccc1C(F)(F)F)C2
O=C(NCCN1CCCC1)Nc1nc2c(s1)-c1c(cnn1-c1ccccc1Br)C2
CCn1nc(CCNC(=O)Nc2nc3c(s2)-c2c(cnn2-c2ccccc2C(F)(F)F)C3)cc1N
CCOC(=O)c1ccc(CNC(=O)Nc2nc3c(s2)-c2c(cnn2-c2ccccc2C(F)(F)F)C3)o1
O=C(NCCc1ccccn1)Nc1nc2c(s1)-c1c(cnn1-c1ccccc1Cl)C2
CN(C)C(=O)CNC(=O)Nc1nc2c(s1)-c1c(cnn1-c1ccccc1C(F)(F)F)C2
CCCNC(=O)Nc1nc2c(s1)-c1c(cnn1-c1ccc(C(=O)NC)cc1C(F)(F)F)C2
CC(C)c1nnc(CCNC(=O)Nc2nc3c(s2)-c2c(cnn2-c2ccccc2C(F)(F)F)C3)o1
CCOC(=O)Cn1nc(CCNC(=O)Nc2nc3c(s2)-c2c(cnn2-c2ccccc2C(F)(F)F)C3)cc1N
CN(C)C(=O)CNC(=O)Nc1nc2c(s1)-c1c(cnn1-c1ccccc1Cl)C2
CCN1CCC2(CCN(C(=O)Nc3nc4c(s3)-c3c(cnn3-c3ccccc3Cl)C4)C2)C1 (configuration not stated)
O=C(NCc1nccs1)Nc1nc2c(s1)-c1c(cnn1-c1ccccc1C(F)(F)F)C2
O=C(NCc1cccnc1)Nc1nc2c(s1)-c1c(cnn1-c1ccccc1C(F)(F)F)C2
O=C(Nc1nc2c(s1)-c1c(cnn1-c1ccccc1Cl)C2)N1CCCCC1c1nc2ccccc2[nH]1 (configuration not stated)
CC(C)(C)OC(=O)N1CCC[C@H]1CNC(=O)Nc1nc2c(s1)-c1c(cnn1-c1ccccc1Cl)C2
CN1CCC(O)C2(CCCN(C(=O)Nc3nc4c(s3)-c3c(cnn3-c3ccccc3Cl)C4)C2)C1 (configuration not stated)
O=C(NCc1ccncc1)Nc1nc2c(s1)-c1c(cnn1-c1ccccc1C(F)(F)F)C2
CCn1cnc(CCNC(=O)Nc2nc3c(s2)-c2c(cnn2-c2cc(Cl)ccc2Cl)C3)c1
N#CCCn1nc(CCNC(=O)Nc2nc3c(s2)-c2c(cnn2-c2ccccc2C(F)(F)F)C3)cc1N
CN(CCc1cn[nH]c1)C(=O)Nc1nc2c(s1)-c1c(cnn1-c1ccccc1C(F)(F)F)C2
O=C(O)CCCNC(=O)Nc1nc2c(s1)-c1c(cnn1-c1ccccc1C(F)(F)F)C2
CNC(=O)Nc1nc2c(s1)-c1c(cnn1-c1cc(Cl)ccc1Cl)C2
CC(C)(C)OC(=O)NCc1cccc(CNC(=O)Nc2nc3c(s2)-c2c(cnn2-c2ccccc2Cl)C3)c1
CC(C)CNC(=O)Nc1nc2c(s1)-c1c(cnn1-c1ccccc1Cl)C2
CCc1csc(CCNC(=O)Nc2nc3c(s2)-c2c(cnn2-c2ccccc2C(F)(F)F)C3)n1
CC(C)(C)OC(=O)CCNC(=O)Nc1nc2c(s1)-c1c(cnn1-c1ccccc1Br)C2
CCOC(Cn1nc(CCNC(=O)Nc2nc3c(s2)-c2c(cnn2-c2ccccc2C(F)(F)F)C3)cc1N)OCC
CCCCNC(=O)Nc1nc2c(s1)-c1c(cnn1-c1ccccc1Cl)C2
O=C(NCc1ccccc1N1CCCCC1)Nc1nc2c(s1)-c1c(cnn1-c1ccccc1Cl)C2
CCNC(=O)Nc1nc2c(s1)-c1c(cnn1-c1cccc(F)c1C(F)(F)F)C2
CCNC(=O)Nc1nc2c(s1)-c1c(cnn1-c1cc(Cl)ccc1Cl)C2
CN(C)CCNC(=O)Nc1nc2c(s1)-c1c(cnn1-c1ccccc1C(F)(F)F)C2
O=C(NCc1cccs1)Nc1nc2c(s1)-c1c(cnn1-c1ccccc1C(F)(F)F)C2
Cc1cc(CNC(=O)Nc2nc3c(s2)-c2c(cnn2-c2ccccc2C(F)(F)F)C3)nn1C
CCc1nnc(CCNC(=O)Nc2nc3c(s2)-c2c(cnn2-c2ccccc2Cl)C3)o1
O=C(NCc1ccc(CN2CCNC2=O)cc1)Nc1nc2c(s1)-c1c(cnn1-c1ccccc1Cl)C2
O=C(NCc1nnn[nH]1)Nc1nc2c(s1)-c1c(cnn1-c1ccccc1Cl)C2
O=C(Nc1nc2c(s1)-c1c(cnn1-c1ccccc1Cl)C2)N1CCCC(c2nc3ccccc3[nH]2)C1 (configuration not stated)
Cc1cc(C)n(CCNC(=O)Nc2nc3c(s2)-c2c(cnn2-c2ccccc2C(F)(F)F)C3)n1
